According to ChEMBL document CHEMBL1201862, “PubChem BioAssay data set” (2004):
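Cultured in 96-well plates, cells were exposed to test compound for 48 hours across five concentrations. At the GI50, growth is halved.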 Active and inactive are the calls of the source. Cut-off read from the data, not from the text of the source: active = GI50 up to about 1.1 µM and inactive = higher.

Legend:
Assay in all cases: NCI tumour cell line growth inhibition, 48 h
786-0 = tested on: 786-0
A498 = tested on: A498
A549 = tested on: A549
ACHN = tested on: ACHN
CAKI-1 = tested on: CAKI-1
CCRF-CEM = tested on: CCRF-CEM
DLD-1 = tested on: DLD-1
DMS-114 = tested on: DMS-114
DMS-273 = tested on: DMS-273
EKVX = tested on: EKVX
HCC 2998 = tested on: HCC 2998
HCT-116 = tested on: HCT-116
HCT-15 = tested on: HCT-15
HL-60 = tested on: HL-60
HOP-18 = tested on: HOP-18
HOP-62 = tested on: HOP-62
HOP-92 = tested on: HOP-92
HT-29 = tested on: HT-29
IGROV-1 = tested on: IGROV-1
K562 = tested on: K562
KM-20L2 = tested on: KM-20L2
KM12 = tested on: KM12
LOX IMVI = tested on: LOX IMVI
LXFL 529 = tested on: LXFL 529
M14 = tested on: M14
M19-MEL = tested on: M19-MEL
MOLT-4 = tested on: MOLT-4
Malme-3M = tested on: Malme-3M
NCI-H226 = tested on: NCI-H226
NCI-H23 = tested on: NCI-H23
NCI-H460 = tested on: NCI-H460
OVCAR-3 = tested on: OVCAR-3
OVCAR-4 = tested on: OVCAR-4
OVCAR-5 = tested on: OVCAR-5
OVCAR-8 = tested on: OVCAR-8
RPMI-8226 = tested on: RPMI-8226
RXF 393 = tested on: RXF 393
SF-268 = tested on: SF-268
SF-295 = tested on: SF-295
SF-539 = tested on: SF-539
SK-MEL-28 = tested on: SK-MEL-28
SK-MEL-2 = tested on: SK-MEL-2
SK-MEL-5 = tested on: SK-MEL-5
SN12C = tested on: SN12C
SNB-19 = tested on: SNB-19
SNB-75 = tested on: SNB-75
SNB-78 = tested on: SNB-78
SR = tested on: SR
SW-620 = tested on: SW-620
TK-10 = tested on: TK-10
UACC-257 = tested on: UACC-257
UACC-62 = tested on: UACC-62
UO-31 = tested on: UO-31
XF498 = tested on: XF498
COLO 205 = tested on: COLO 205
NCI-H522 = tested on: NCI-H522
SK-OV-3 = tested on: SK-OV-3
U-251 = tested on: U-251

Measured: GI50

COc1ccc(/C=C2\CCC(CCN3CCOCC3)C2=O)cc1 (stereo not given)
inactive: 786-0 > 100 µM | A498 > 100 µM | A549 > 100 µM | ACHN > 100 µM | CAKI-1 > 100 µM | CCRF-CEM > 100 µM | DLD-1 > 100 µM | DMS-114 > 100 µM | DMS-273 > 100 µM | EKVX > 100 µM | HCC 2998 > 100 µM | HCT-116 > 100 µM | HL-60 > 100 µM | HOP-18 > 100 µM | HOP-62 > 100 µM | HOP-92 > 100 µM | HT-29 > 100 µM | IGROV-1 > 100 µM | K562 > 100 µM | KM-20L2 > 100 µM | KM12 > 100 µM | LOX IMVI > 100 µM | LXFL 529 > 100 µM | M14 > 100 µM | M19-MEL > 100 µM | MOLT-4 > 100 µM | Malme-3M > 100 µM | NCI-H226 > 100 µM | NCI-H23 > 100 µM | NCI-H460 > 100 µM | OVCAR-3 > 100 µM | OVCAR-4 > 100 µM | OVCAR-5 > 100 µM | OVCAR-8 > 100 µM | RPMI-8226 > 100 µM | RXF 393 > 100 µM | SF-268 > 100 µM | SF-295 > 100 µM | SF-539 > 100 µM | SK-MEL-28 > 100 µM | SK-MEL-2 > 100 µM | SK-MEL-5 > 100 µM | SN12C > 100 µM | SNB-19 > 100 µM | SNB-75 > 100 µM | SNB-78 > 100 µM | SR > 100 µM | SW-620 > 100 µM | TK-10 > 100 µM | UACC-257 > 100 µM | UACC-62 > 100 µM | UO-31 > 100 µM | XF498 > 100 µM
> 100 µM: HCT-15

O=C(O)CCc1cccc2c1oc1c(CCC(=O)O)cccc12
inactive: 786-0 > 100 µM | A498 > 100 µM | A549 > 100 µM | ACHN > 100 µM | CAKI-1 > 100 µM | CCRF-CEM > 100 µM | COLO 205 > 100 µM | DLD-1 > 100 µM | DMS-114 > 100 µM | DMS-273 > 100 µM | HCC 2998 > 100 µM | HCT-116 > 100 µM | HL-60 > 100 µM | HOP-18 > 100 µM | HOP-92 > 100 µM | HT-29 > 100 µM | IGROV-1 > 100 µM | K562 > 100 µM | KM-20L2 > 100 µM | KM12 > 100 µM | LOX IMVI > 100 µM | LXFL 529 > 100 µM | M14 > 100 µM | M19-MEL > 100 µM | MOLT-4 > 100 µM | Malme-3M > 100 µM | NCI-H226 > 100 µM | NCI-H23 > 100 µM | NCI-H460 > 100 µM | NCI-H522 > 100 µM | OVCAR-3 > 100 µM | OVCAR-4 > 100 µM | OVCAR-5 > 100 µM | OVCAR-8 > 100 µM | RPMI-8226 > 100 µM | RXF 393 > 100 µM | SF-268 > 100 µM | SF-295 > 100 µM | SF-539 > 100 µM | SK-MEL-28 > 100 µM | SK-MEL-2 > 100 µM | SK-MEL-5 > 100 µM | SK-OV-3 > 100 µM | SN12C > 100 µM | SNB-19 > 100 µM | SNB-75 > 100 µM | SNB-78 48.1 µM | SR > 100 µM | SW-620 > 100 µM | TK-10 > 100 µM | U-251 > 100 µM | UACC-257 > 100 µM | UACC-62 > 100 µM | UO-31 > 100 µM | XF498 > 100 µM
> 100 µM: HCT-15
